The target in experiment [1] is human JAK1 (a.a. 837-1142) (Homo sapiens, UniProt P23458). Description: In vitro JAK kinase assay (Example D), JAK1. The class given is biochemical. The settings on record: 1 mM ATP.
The next experiment addresses JAK2 (a.a. 828-1132) (Homo sapiens (Human), UniProt O60674). Briefly: In vitro JAK kinase assay (Example D), JAK2. The class given is biochemical. The settings on record: ratio JAK2/JAK1 of IC50s, 1 mM ATP.

This passage reports IC50 and JAK2/JAK1 results from patent US10125150B2, “Crystalline forms of a PI3K inhibitor” (Incyte Corporation, priority 2015, dated 2018).

Bounds are passed on as bounds.

Sequence of JAK2 (a.a. 828-1132) (O60674 828-1132): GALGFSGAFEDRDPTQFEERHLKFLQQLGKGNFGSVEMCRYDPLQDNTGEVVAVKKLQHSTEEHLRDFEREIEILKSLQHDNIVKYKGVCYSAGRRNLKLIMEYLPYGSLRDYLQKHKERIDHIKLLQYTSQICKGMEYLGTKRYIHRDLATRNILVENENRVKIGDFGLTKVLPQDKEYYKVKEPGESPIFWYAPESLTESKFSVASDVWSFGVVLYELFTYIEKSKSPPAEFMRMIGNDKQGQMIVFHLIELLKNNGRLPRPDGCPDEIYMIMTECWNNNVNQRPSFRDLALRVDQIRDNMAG

One may read the IC50 as the concentration at which inhibition is half-maximal. For the compound `C[C@@H](CO)NCc1cc(OC2CCN([C@H]3C[C@](CC#N)(n4cc(-c5ncnc6[nH]ccc56)cn4)C3)CC2)nc(C(F)(F)F)c1` [Form 23, {trans-3-(4-{[4-({[(1S)-2-hydroxy-1-methylethyl]amino}methyl)-6-(trifluoromethyl)pyridin-2-yl]oxy}piperidin-1-yl)-1-[4-(7H-pyrrolo[2,3-d]pyrimidin-4-yl)-1H-pyrazol-1-yl]cyclobutyl}acetonitrile], in experiment [1], the IC50 was below 10 nM. On JAK2 (a.a. 828-1132), the JAK2/JAK1 is reported as above 10.

For the compound `N#CC[C@]1(n2cc(-c3ncnc4[nH]ccc34)cn2)C[C@H](N2CCC(Oc3cc(CN4CC(O)C4)cc(C(F)(F)F)n3)CC2)C1` [Form 11, {trans-3-(4-{[4-[(3-hydroxyazetidin-1-yl)methyl]-6-(trifluoromethyl)pyridin-2-yl]oxy}piperidin-1-yl)-1-[4-(7H-pyrrolo[2,3-d]pyrimidin-4-yl)-1H-pyrazol-1-yl]cyclobutyl}acetonitrile], the IC50 in experiment [1] was below 10 nM. In addition, the JAK2/JAK1 on JAK2 (a.a. 828-1132) was above 10.

`N#CC[C@]1(n2cc(-c3ncnc4[nH]ccc34)cn2)C[C@H](N2CCC(Oc3cc(CN4CCC[C@H]4CO)cc(C(F)(F)F)n3)CC2)C1` [Form 12, {trans-3-(4-{[4-{[(2S)-2-(hydroxymethyl)pyrrolidin-1-yl]methyl}-6-(trifluoromethyl)pyridin-2-yl]oxy}piperidin-1-yl)-1-[4-(7H-pyrrolo[2,3-d]pyrimidin-4-yl)-1H-pyrazol-1-yl]cyclobutyl}acetonitrile]: the IC50 in experiment [1] is below 10 nM. The JAK2/JAK1 on JAK2 (a.a. 828-1132) was above 10.

In turn, `C[C@H](O)CNCc1cc(OC2CCN([C@H]3C[C@](CC#N)(n4cc(-c5ncnc6[nH]ccc56)cn4)C3)CC2)nc(C(F)(F)F)c1` [Form 25, {trans-3-(4-([4-({[(2S)-2-hydroxypropyl]amino}methyl)-6-(trifluoromethyl)pyridin-2-yl]oxy}piperidin-1-yl)-1-[4-(7H-pyrrolo[2,3-d]pyrimidin-4-yl)-1H-pyrazol-1-yl]cyclobutyl}acetonitrile] registered an IC50 in experiment [1] below 10 nM. Moreover, the JAK2/JAK1 at JAK2 (a.a. 828-1132) is above 10.

In experiment [1], `N#CCC1(n2cc(-c3ncnc4[nH]ccc34)cn2)CN(C2CCN(C(=O)c3ccnc(C(F)(F)F)n3)CC2)C1` [Form 9, [3-[4-(7H-pyrrolo[2,3-d]pyrimidin-4-yl)-1H-pyrazol-1-yl]-1-(1-{[2-(trifluoromethyl)pyrimidin-4-yl]carbonyl}piperidin-4-yl)azetidin-3-yl]acetonitrile] returned an IC50 below 10 nM. The JAK2/JAK1 at JAK2 (a.a. 828-1132) was above 10.

Compound `N#CCC(CN1CCN(C(=O)c2ccc(C#N)cc2F)CC1)n1cc(-c2ncnc3[nH]ccc23)cn1` (centres unmarked) [Form 5, 4-[(4-{3-cyano-2-[4-(7H-pyrrolo[2,3-d]pyrimidin-4-yl)-1H-pyrazol-1-yl]propyl}piperazin-1-yl)carbonyl]-3-fluorobenzonitrile] registered an IC50 in experiment [1] below 10 nM. Further, on JAK2 (a.a. 828-1132), the JAK2/JAK1 is above 10.

The compound `N#CCC(CN1CCN(C(=O)c2ccc(C#N)cc2F)CC1)n1ccc(-c2ncnc3[nH]ccc23)c1` (centres unmarked) [Form 6, 4-[(4-{3-cyano-2-[3-(7H-pyrrolo[2,3-d]pyrimidin-4-yl)-1H-pyrrol-1-yl]propyl}piperazin-1-yl)carbonyl]-3-fluorobenzonitrile] came in with an IC50 in experiment [1] below 10 nM. Moreover, the JAK2/JAK1 at JAK2 (a.a. 828-1132) was above 10.

In turn, `C[C@H](NC(=O)c1cc(F)c(N2CC(CC#N)(n3cc(-c4ncnc5[nH]ccc45)cn3)C2)cc1F)C(F)(F)F` [Form 16, 4-{3-(cyanomethyl)-3-[4-(7H-pyrrolo[2,3-d]pyrimidin-4-yl)-1H-pyrazol-1-yl]azetidin-1-yl}-2,5-difluoro-N-[(1S)-2,2,2-trifluoro-1-methylethyl]benzamide] came in with an IC50 in experiment [1] below 10 nM. For the same compound, the JAK2/JAK1 at JAK2 (a.a. 828-1132) is listed as above 10.

For the compound `N#CCC1(n2cc(-c3ncnc4[nH]ccc34)cn2)CN([C@H]2CC[C@@H](Oc3cc(CN4CC[C@H](O)C4)cc(C(F)(F)F)n3)CC2)C1` [Form 22, {1-(cis-4-{[4-{[(3S)-3-hydroxypyrrolidin-1-yl]methyl}-6-(trifluoromethyl)pyridin-2-yl]oxy}cyclohexyl)-3-[4-(7H-pyrrolo[2,3-d]pyrimidin-4-yl)-1H-pyrazol-1-yl]azetidin-3-yl}acetonitrile], the IC50 in experiment [1] is below 10 nM. In addition, at JAK2 (a.a. 828-1132), the JAK2/JAK1 is above 10.

The compound `N#CC[C@]1(n2cc(-c3ncnc4[nH]ccc34)cn2)C[C@H](N2CCN(C(=O)c3ccnc(C(F)(F)F)n3)CC2)C1` [Form 10, [trans-1-[4-(7H-pyrrolo[2,3-d]pyrimidin-4-yl)-1H-pyrazol-1-yl]-3-(4-{[2-(trifluoromethyl)pyrimidin-4-yl]carbonyl}piperazin-1-yl)cyclobutyl]acetonitrile] registered an IC50 in experiment [1] below 10 nM. Moreover, at JAK2 (a.a. 828-1132), the JAK2/JAK1 is above 10.

`N#CCC1(n2cc(-c3ncnc4[nH]ccc34)cn2)CN([C@H]2CC[C@@H](Oc3cc(CN4CC[C@@H](O)C4)cc(C(F)(F)F)n3)CC2)C1` [Form 21, {1-(cis-4-{[4-{[(3R)-3-hydroxypyrrolidin-1-yl]methyl}-6-(trifluoromethyl)pyridin-2-yl]oxy}cyclohexyl)-3-[4-(7H-pyrrolo[2,3-d]pyrimidin-4-yl)-1H-pyrazol-1-yl]azetidin-3-yl}acetonitrile]: in experiment [1], the IC50 is below 10 nM. Further, the JAK2/JAK1 at JAK2 (a.a. 828-1132) is given as above 10.

Turning to `N#CCC1(n2cc(-c3ncnc4[nH]ccc34)cn2)CN(C2CCN(C(=O)c3ccnc(C(F)(F)F)c3F)CC2)C1` [Form 7, {1-{1-[3-Fluoro-2-(trifluoromethyl)isonicotinoyl]piperidin-4-yl}-3-[4-(7H-pyrrolo[2,3-d]pyrimidin-4-yl)-1H-pyrazol-1-yl]azetidin-3-yl}acetonitrile], the half-inhibitory concentration (IC50) in experiment [1] is below 10 nM. For the same compound, the JAK2/JAK1 at JAK2 (a.a. 828-1132) is on record as above 10.

As to `CC(C)(O)c1cc(O[C@H]2CC[C@@H](N3CC(CC#N)(n4cc(-c5ncnc6[nH]ccc56)cn4)C3)CC2)nc(C(F)(F)F)c1` [Form 20, {1-(cis-4-{[4-(1-hydroxy-1-methylethyl)-6-(trifluoromethyl)pyridin-2-yl]oxy}cyclohexyl)-3-[4-(7H-pyrrolo[2,3-d]pyrimidin-4-yl)-1H-pyrazol-1-yl]azetidin-3-yl}acetonitrile], the IC50 in experiment [1] was below 10 nM. For the same compound, at JAK2 (a.a. 828-1132), the JAK2/JAK1 is listed as above 10.

In experiment [1], `C[C@@H](O)c1nc2cnc3ccsc3c2n1[C@H]1CC[C@H](CC#N)OC1` [Form 1, ((2R,5S)-5-{2-[(1R)-1-hydroxyethyl]-1H-imidazo[4,5-d]thieno[3,2-b]pyridin-1-yl}tetrahydro-2H-pyran-2-yl)acetonitrile] displayed an IC50 below 100 nM. Also, the JAK2/JAK1 at JAK2 (a.a. 828-1132) was above 10.

Compound `N#CCC(C1CCN(c2nc3cccnc3o2)C1)n1cc(-c2ncnc3[nH]ccc23)cn1` (centres unmarked) [Form 4, 3-(1-[1,3]oxazolo[5,4-b]pyridin-2-ylpyrrolidin-3-yl)-3-[4-(7H-pyrrolo[2,3-d]pyrimidin-4-yl)-1H-pyrazol-1-yl]propanenitrile] showed an IC50 in experiment [1] below 10 nM. Further, the JAK2/JAK1 on JAK2 (a.a. 828-1132) is recorded as above 10.

As to `CCNCc1cc(O[C@H]2CC[C@@H](N3CC(CC#N)(n4cc(-c5ncnc6[nH]ccc56)cn4)C3)CC2)nc(C(F)(F)F)c1` [Form 19, {1-(cis-4-{[4-[(ethylamino)methyl]-6-(trifluoromethyl)pyridin-2-yl]oxy}cyclohexyl)-3-[4-(7H-pyrrolo[2,3-d]pyrimidin-4-yl)-1H-pyrazol-1-yl]azetidin-3-yl}acetonitrile], in experiment [1], the IC50 was below 10 nM. The JAK2/JAK1 on JAK2 (a.a. 828-1132) was above 10.

`N#CC[C@]1(n2cc(-c3ncnc4[nH]ccc34)cn2)C[C@H](N2CCC(Oc3cc(CN4CCC[C@@H]4CO)cc(C(F)(F)F)n3)CC2)C1` [Form 13, {trans-3-(4-{[4-{[(2R)-2-(hydroxymethyl)pyrrolidin-1-yl]methyl}-6-(trifluoromethyl)pyridin-2-yl]oxy}piperidin-1-yl)-1-[4-(7H-pyrrolo[2,3-d]pyrimidin-4-yl)-1H-pyrazol-1-yl]cyclobutyl}acetonitrile] showed an IC50 in experiment [1] below 10 nM. In addition, the JAK2/JAK1 on JAK2 (a.a. 828-1132) is reported as above 10.

Take `N#CCC1(n2cc(-c3ncnc4[nH]ccc34)cn2)CN([C@H]2CC[C@@H](Oc3cc(CCO)nc(C(F)(F)F)n3)CC2)C1` [Form 18, {1-(cis-4-{[6-(2-hydroxyethyl)-2-(trifluoromethyl)pyrimidin-4-yl]oxy}cyclohexyl)-3-[4-(7H-pyrrolo[2,3-d]pyrimidin-4-yl)-1H-pyrazol-1-yl]azetidin-3-yl}acetonitrile]: the half-inhibitory concentration (IC50) in experiment [1] was below 10 nM. For the same compound, on JAK2 (a.a. 828-1132), the JAK2/JAK1 is above 10.

Compound `N#CCC(C1CCN(c2cccc(Cl)n2)C1)n1cc(-c2ncnc3[nH]ccc23)cn1` (single isomer, unassigned) [Form 3, 3-[1-(6-chloropyridin-2-yl)pyrrolidin-3-yl]-3-[4-(7H-pyrrolo[2,3-d]pyrimidin-4-yl)-1H-pyrazol-1-yl]propanenitrile] displayed an IC50 in experiment [1] below 10 nM. For the same compound, on JAK2 (a.a. 828-1132), the JAK2/JAK1 is above 10.

In experiment [1], `C[C@@H](O)CNCc1cc(OC2CCN([C@H]3C[C@](CC#N)(n4cc(-c5ncnc6[nH]ccc56)cn4)C3)CC2)nc(C(F)(F)F)c1` [Form 24, {trans-3-(4-{[4-({[(2R)-2-hydroxypropyl]amino}methyl)-6-(trifluoromethyl)pyridin-2-yl]oxy}piperidin-1-yl)-1-[4-(7H-pyrrolo[2,3-d]pyrimidin-4-yl)-1H-pyrazol-1-yl]cyclobutyl}acetonitrile] displayed a half-maximal inhibitory concentration (IC50) below 10 nM. For the same compound, the JAK2/JAK1 on JAK2 (a.a. 828-1132) is given as above 10.

The compound `N#CCC1(n2cc(-c3ncnc4[nH]ccc34)cn2)CN(C2CCN(C(=O)Nc3ccc(F)cc3C(F)(F)F)CC2)C1` [Form 8, 4-{3-(Cyanomethyl)-3-[4-(7H-pyrrolo[2,3-d]pyrimidin-4-yl)-1H-pyrazol-1-yl]azetidin-1-yl}-N-[4-fluoro-2-(trifluoromethyl)phenyl]piperidine-1-carboxamide] gave an IC50 in experiment [1] below 10 nM. Further, on JAK2 (a.a. 828-1132), the JAK2/JAK1 is above 10.

Consider `N#CC[C@]1(n2cc(-c3ncnc4[nH]ccc34)cn2)C[C@H](N2CCC(Oc3cc(CCO)cc(C(F)(F)F)n3)CC2)C1` [Form 26, {trans-3-(4-{[4-(2-hydroxyethyl)-6-(trifluoromethyl)pyridin-2-yl]oxy}piperidin-1-yl)-1-[4-(7H-pyrrolo[2,3-d]pyrimidin-4-yl)-1H-pyrazol-1-yl]cyclobutyl}acetonitrile], for which, in experiment [1], the IC50 is below 10 nM. For the same compound, the JAK2/JAK1 at JAK2 (a.a. 828-1132) was above 10.
